Patent US7718673B2, “Isonipecotamides for the treatment of integrin-mediated disorders” (Ortho-McNeil Pharmaceutical, Inc., priority 1999, dated 2010)
Like-named read-outs stand apart in the source and are kept apart here.

What was measured:
Human αvβ3 = molecular target: T1, Human αvβ3 (Homo sapiens, UniProt P05106+P06756); test: In vitro solid phase purified αvβ3 binding assay (vitronectin/αvβ3)
T1 construct: purchased Chemicon International Inc., Temecula, Calif
Procedure: In Vitro Solid Phase Purified αvβ3 Binding Assay
(§1) The vitronectin/αvβ3 binding assay methods were derived from Mehta et al. (Biochem J. 1998, 330, 861). Human αvβ3 (Chemicon International Inc., Temecula, Calif.), at a concentration of 1 μg/ml dissolved in Tris buffer (20 mM Tris, 1 mM CaCl2, […], 10 μM MnCl2, 150 mM NaCl), was immobilized on Immulon 96 well plates (Dynex Technologies, Chantilly, Va.) overnight at 4° C. Plates were washed and treated with blocking buffer (3% BSA in Tris buffer) for 2 h at 37° C. Plates were then rinsed 2 times with Tris buffer containing 0.3% BSA and 0.2% Tween20 (polyoxyethylenesorbitan monolaurate). Five minutes prior to the addition of 5 nM vitronectin (Sigma, St. Louis, Mo.), synthesized compounds were added to wells in duplicate. Each plate included c-RGDfV as an internal control. Following a 3 hour incubation at 37° C., plates were washed 5 times in assay buffer. An anti-human vitronectin IgG rabbit polyclonal antibody (Calbiochem, San Diego, Calif.) was added (1:2000) and plates were incubated for 1 hour at room temperature. VectaStain ABC peroxidase kit reagents (Vector Laboratories, Burlingame, Calif.) employing a biotin labeled anti-rabbit IgG, were utilized for detection of bound antibody. Plates were read at 490 nm on a Molecular Devices (Sunnyvale, Calif.) microplate reader.

[1] = molecular target: RGD-affinity purified GPIIb/IIIa (Homo sapiens, UniProt P05106+P08514); test: In vitro solid phase purified GPIIb/IIIa binding assay (biotinylated fibrinogen); conditions: fibrinogen binding to immobilized GPIIb/IIIa; read-out: IIb/IIIa IC50
Procedure: In Vitro Solid Phase Purified GP IIB/IIIA Binding Assay
The plate was covered and incubated overnight at 4° C. The GPIIb/IIIa solution was discarded and 150 μl of 5% BSA was added and incubated at RT for 1-3 h. The plate was washed extensively with modified Tyrodes buffer. Biotinylated fibrinogen (25 μl/well) at 2× final concentration was added to the wells that contain the test compounds (25 μl/well). The plate was covered and incubated at RT for 2-4 h. Twenty minutes prior to incubation completion, one drop of Reagent A (VectaStain ABC Horse Radish Peroxidase kit, Vector Laboratories, Inc.) and one drop Reagent B were added with mixing to 5 mL modified Tyrodes buffer mix and let stand. The ligand solution was discarded and the plate washed (5×200 μl/well) with modified Tyrodes buffer. Vecta Stain HRP-Biotin-Avidin reagent (50 μl/well, as prepared above) was added and incubated at RT for 15 min. The Vecta Stain solution was discarded and the wells washed (5×200 μl/well) with modified Tyrodes buffer. Developing buffer (10 mL of 50 mM citrate/phosphate buffer @ pH 5.3, 6 mg o-phenylenediamine, 6 μl 30% H2O2; 50 μl/well) was added and incubated at RT for 3-5 min, and then 2 NH2SO4 (50 μl/well) was added. The absorbance was read at 490 nm.

human purified αvβ5 = molecular target: T2, human purified αvβ5 (Homo sapiens, UniProt P06756+P18084); test: In vitro solid phase purified αvβ5 binding assay (vitronectin/αvβ5); conditions: for IC50: vitronectin binding to immobilized αvβ5; for inhibition at 5 µM: read-out: αvβ5 Percent inhibition at 5 μM
T2 construct: purchased Chemicon International, Inc
Procedure: as §1
In Vitro Solid Phase Purified αvβ5 Binding Assay
The vitronectin/αvβ5 binding assay method was performed in the same manner as the vitronectin/αvβ3 binding assay (EXAMPLE 64) immobilizing with 1 μg/ml of human purified αvβ5 (Chemicon International, Inc.) on to Immulon 96 well plates (Dynex Technologies) instead of αvβ3. All other aspects of the assay including buffers, reagents, and incubation times remain unchanged.

[2] = vitronectin binding to immobilized αvβ3, read-out: αvβ3 IC50

Sequence of RGD-affinity purified GPIIb/IIIa (P08514 32-887 limits assumed): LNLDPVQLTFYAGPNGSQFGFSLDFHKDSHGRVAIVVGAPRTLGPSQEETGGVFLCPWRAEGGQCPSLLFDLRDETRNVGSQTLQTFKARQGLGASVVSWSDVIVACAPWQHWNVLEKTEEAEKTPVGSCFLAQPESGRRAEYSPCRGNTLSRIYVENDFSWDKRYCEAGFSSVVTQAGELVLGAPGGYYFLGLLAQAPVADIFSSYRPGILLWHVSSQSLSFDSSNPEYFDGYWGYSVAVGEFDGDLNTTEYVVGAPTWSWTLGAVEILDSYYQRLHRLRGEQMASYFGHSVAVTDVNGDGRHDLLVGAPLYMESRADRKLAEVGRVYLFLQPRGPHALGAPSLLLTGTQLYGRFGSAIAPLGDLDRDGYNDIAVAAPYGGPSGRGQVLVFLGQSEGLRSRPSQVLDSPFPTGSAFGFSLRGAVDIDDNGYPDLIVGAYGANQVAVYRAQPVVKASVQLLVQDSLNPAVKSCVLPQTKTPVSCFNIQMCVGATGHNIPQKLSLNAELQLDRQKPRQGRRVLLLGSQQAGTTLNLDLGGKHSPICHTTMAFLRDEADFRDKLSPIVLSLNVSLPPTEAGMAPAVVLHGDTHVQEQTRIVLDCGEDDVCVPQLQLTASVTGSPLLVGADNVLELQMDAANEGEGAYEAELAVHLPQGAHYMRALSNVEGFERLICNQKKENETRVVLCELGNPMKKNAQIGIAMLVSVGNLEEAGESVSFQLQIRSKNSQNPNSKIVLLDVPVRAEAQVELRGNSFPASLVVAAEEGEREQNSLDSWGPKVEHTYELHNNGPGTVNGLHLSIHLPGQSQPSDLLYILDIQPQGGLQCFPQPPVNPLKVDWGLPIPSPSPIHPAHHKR
Sequence of RGD-affinity purified GPIIb/IIIa (P08514 891-1039 partner limits assumed): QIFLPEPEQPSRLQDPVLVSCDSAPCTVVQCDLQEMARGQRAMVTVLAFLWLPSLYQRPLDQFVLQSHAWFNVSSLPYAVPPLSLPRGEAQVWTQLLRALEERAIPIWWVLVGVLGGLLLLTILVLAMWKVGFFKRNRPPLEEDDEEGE
Sequence of RGD-affinity purified GPIIb/IIIa (P05106 27-788): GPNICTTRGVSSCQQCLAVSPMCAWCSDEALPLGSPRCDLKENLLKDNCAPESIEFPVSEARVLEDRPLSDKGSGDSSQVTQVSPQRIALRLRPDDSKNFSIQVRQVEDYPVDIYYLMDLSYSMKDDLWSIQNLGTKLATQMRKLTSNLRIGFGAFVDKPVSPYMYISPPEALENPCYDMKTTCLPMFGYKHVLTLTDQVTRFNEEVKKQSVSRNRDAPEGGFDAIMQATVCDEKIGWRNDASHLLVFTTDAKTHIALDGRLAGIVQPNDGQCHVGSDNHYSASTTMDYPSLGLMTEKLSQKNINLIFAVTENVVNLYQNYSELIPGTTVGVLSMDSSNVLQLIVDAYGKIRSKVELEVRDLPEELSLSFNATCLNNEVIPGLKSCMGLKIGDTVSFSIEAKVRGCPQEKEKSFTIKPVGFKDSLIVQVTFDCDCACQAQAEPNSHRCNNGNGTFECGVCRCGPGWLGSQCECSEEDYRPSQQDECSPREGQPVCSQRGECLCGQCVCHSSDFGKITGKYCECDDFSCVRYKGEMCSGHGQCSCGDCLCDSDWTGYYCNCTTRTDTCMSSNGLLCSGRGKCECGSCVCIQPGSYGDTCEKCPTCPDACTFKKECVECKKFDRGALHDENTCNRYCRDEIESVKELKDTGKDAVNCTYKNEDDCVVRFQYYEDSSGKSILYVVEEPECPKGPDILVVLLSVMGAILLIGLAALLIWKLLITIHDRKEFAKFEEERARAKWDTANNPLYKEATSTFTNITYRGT
T1 sequence (P06756 31-889 limits assumed): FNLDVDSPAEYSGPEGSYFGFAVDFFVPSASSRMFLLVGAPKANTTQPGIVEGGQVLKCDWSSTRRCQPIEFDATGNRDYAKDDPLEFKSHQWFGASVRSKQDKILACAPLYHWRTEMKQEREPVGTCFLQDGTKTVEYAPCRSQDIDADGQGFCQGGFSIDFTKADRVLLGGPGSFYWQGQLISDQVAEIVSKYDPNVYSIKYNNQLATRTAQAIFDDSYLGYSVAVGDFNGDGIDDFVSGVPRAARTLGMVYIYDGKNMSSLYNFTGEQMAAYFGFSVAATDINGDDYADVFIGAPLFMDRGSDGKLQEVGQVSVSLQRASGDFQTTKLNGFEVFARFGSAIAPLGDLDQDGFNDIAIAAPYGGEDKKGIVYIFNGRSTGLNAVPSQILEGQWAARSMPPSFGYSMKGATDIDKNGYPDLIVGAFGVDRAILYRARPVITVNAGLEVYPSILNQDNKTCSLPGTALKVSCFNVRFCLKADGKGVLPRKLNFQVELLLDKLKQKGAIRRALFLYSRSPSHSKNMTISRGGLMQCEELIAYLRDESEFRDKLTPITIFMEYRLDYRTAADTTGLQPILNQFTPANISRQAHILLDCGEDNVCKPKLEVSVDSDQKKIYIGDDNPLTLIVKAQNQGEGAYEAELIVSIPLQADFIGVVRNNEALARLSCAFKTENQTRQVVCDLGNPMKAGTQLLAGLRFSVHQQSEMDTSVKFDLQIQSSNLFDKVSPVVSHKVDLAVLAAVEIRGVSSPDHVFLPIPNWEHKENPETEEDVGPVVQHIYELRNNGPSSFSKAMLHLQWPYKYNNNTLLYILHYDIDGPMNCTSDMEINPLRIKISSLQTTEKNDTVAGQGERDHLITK
T1 sequence (P06756 891-1048 partner limits assumed): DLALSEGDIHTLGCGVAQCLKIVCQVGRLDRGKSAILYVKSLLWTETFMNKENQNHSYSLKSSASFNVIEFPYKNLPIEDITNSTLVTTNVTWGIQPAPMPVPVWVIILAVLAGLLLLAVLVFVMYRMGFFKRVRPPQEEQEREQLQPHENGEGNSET
T1 sequence (P05106 27-788): as the sequence (P05106 27-788) above
T2 sequence (P06756 31-889 limits assumed): as the sequence (P06756 31-889 limits assumed) above
T2 sequence (P06756 891-1048 partner limits assumed): as the sequence (P06756 891-1048 partner limits assumed) above
T2 sequence (P18084 24-799): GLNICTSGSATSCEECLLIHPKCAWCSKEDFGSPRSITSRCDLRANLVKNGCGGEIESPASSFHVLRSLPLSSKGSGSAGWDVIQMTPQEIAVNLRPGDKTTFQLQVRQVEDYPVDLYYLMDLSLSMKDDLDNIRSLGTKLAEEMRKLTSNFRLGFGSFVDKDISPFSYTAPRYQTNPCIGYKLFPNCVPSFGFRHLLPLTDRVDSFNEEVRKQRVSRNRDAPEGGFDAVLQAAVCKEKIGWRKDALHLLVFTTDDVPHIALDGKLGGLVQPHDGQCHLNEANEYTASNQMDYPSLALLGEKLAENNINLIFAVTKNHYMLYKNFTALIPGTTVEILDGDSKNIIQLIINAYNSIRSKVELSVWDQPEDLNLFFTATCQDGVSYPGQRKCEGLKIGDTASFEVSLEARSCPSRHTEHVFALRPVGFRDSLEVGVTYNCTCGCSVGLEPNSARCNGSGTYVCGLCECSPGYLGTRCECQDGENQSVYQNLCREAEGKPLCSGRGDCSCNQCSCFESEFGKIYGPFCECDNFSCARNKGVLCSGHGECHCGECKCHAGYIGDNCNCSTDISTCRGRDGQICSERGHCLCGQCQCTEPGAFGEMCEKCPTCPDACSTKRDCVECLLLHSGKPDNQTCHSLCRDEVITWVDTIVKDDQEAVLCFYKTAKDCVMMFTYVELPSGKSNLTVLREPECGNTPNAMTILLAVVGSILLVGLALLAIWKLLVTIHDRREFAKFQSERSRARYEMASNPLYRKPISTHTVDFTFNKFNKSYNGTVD

SMILES | IC50 (Human αvβ3; [2]) [µM] | IC50 [1] [µM] | IC50 (human purified αvβ5) [µM] | inhibition at 5 µM (human purified αvβ5) [%] | melting point [°C] | IC50 (Human αvβ3) [µM]
CCN(CC)C(=O)COC(=O)CC(NC(=O)C1CCN(C(=O)CCCNC2=NCCN2C(=O)OC(C)(C)C)CC1)c1cnc2ccccc2c1 (stereo not drawn) [Compound 45] | 3.7 | 14 | – | 40 | – | –
O=C(O)C[C@H](NC(=O)C1CCN(C(=O)CCCNc2ccccn2)CC1)c1cnc2ccccc2c1 [Compound 6, β-[[[1-[1-oxo-4-(2-pyridinylamino)butyl]-4-piperidinyl]carbonyl]amino]-, (β^3S)-3-quinolinepropanoic acid] | 0.004 | 0.46 | – | – | 87 to 90 | –
COc1ccc(C(CC(=O)O)NC(=O)C2CCN(C(=O)CCCNC3=NCCN3)CC2)cc1OC (stereo not drawn) [Compound 34] | 0.029 | 1.5 | > 5 | – | – | –
O=C(O)C[C@H](NC(=O)C1CCN(C(=O)CCCNC2=NCCN2)CC1)c1cnc2ccccc2c1 [Compound 1, β-[[[1-[4-[(4,5-dihydro-1H-imidazol-2-yl)amino]-1-oxobutyl]-4-piperidinyl]carbonyl]amino]-, (β^3S)-3-quinolinepropanoic acid] | – | 0.03 | 0.025 | – | – | 0.0037
O=C(O)CC(NC(=O)C1CCN(C(=O)CCc2nc3ccccc3[nH]2)CC1)c1cccc2ccccc12 (stereo not drawn) [Compound 15] | > 5 | 17 | – | – | – | –
COc1cc(OC)cc(C(CC(=O)O)NC(=O)C2CCN(C(=O)CCCNC3=NCCN3)CC2)c1 (stereo not drawn) [Compound 24] | 0.064 | 2.2 | – | – | – | –
CC(CNC1=NCCN1)C(=O)N1CCC(C(=O)N[C@@H](CC(=O)O)c2cccnc2)CC1 (stereo partly drawn) [Compound 52] | 0.25 | 2.7 | 0.76 | – | – | –
O=C(O)CC(NC(=O)C1CCN(C(=O)CCCNC2=NCCN2)CC1)c1cccc(C(F)(F)F)c1 (stereo not drawn) [Compound 27] | > 0.5 | 13 | – | – | – | –
O=C(O)CC(NC(=O)C1CCN(C(=O)C2CCNCC2)CC1)c1cnc2ccccc2c1 (stereo not drawn) [Compound 9] | 30 | 0.3 | – | – | – | –
O=C(O)CC(NC(=O)C1CCN(C(=O)OCCNC2=NCCN2)CC1)c1cc(F)cc(F)c1 (stereo not drawn) [Compound 35] | 0.14 | 1.6 | – | – | – | –
O=C(O)CC(NC(=O)C1CCN(C(=O)OCCNC2=NCCN2)CC1)c1cccnc1 (stereo not drawn) [Compound 31] | 0.029 | 4.2 | – | – | – | –

The next lines start with results.

IC50 (Human αvβ3; [2]) [µM] | IC50 [1] [µM] | IC50 (human purified αvβ5) [µM] | inhibition at 5 µM (human purified αvβ5) [%] | melting point [°C] | SMILES | IC50 (Human αvβ3) [µM]
0.04 | 0.26 | 0.071 | – | – | N=C(N)NOCCC(=O)N1CCC(C(=O)NC[C@H](NC(=O)OCc2ccccc2)C(=O)O)CC1 [Compound 58] | –
0.27 | 0.29 | 2 | – | – | COC(=O)[C@H](CNC(=O)C1CCN(C(=O)C(C)CNC2=NCCN2)CC1)NC(=O)OCc1ccccc1 (stereo partly drawn) [Compound 51] | –
0.0058 | 0.0089 | 0.021 | – | – | O=C(N[C@@H](CNC(=O)C1CCN(C(=O)CCCNC2=NCCN2)CC1)C(=O)O)OCc1ccccc1 [Compound 2, 3-[[[1-[4-[(4,5-dihydro-1H-imidazol-2-yl)amino]-1-oxobutyl]-4-piperidinyl]carbonyl]amino]-N-[(phenylmethoxy)carbonyl]-L-alanine] | –
0.039 | 0.012 | 0.21 | – | – | C=CC(CCC(=O)N1CCC(C(=O)NC[C@H](NC(=O)OCc2ccccc2)C(=O)O)CC1)NC1=NCCN1 (stereo partly drawn) [Compound 49] | –
0.027 | 0.19 | 0.086 | – | – | O=C(N[C@@H](CNC(=O)C1CCN(C(=O)CCONC2=NCCN2)CC1)C(=O)O)OCc1ccccc1 [Compound 60] | –
0.028 | 0.36 | 2.9 | – | – | COC(=O)C[C@H](NC(=O)C1CCN(C(=O)CCCNC2=NCCN2)CC1)c1cnc2ccccc2c1 [Compound 44] | –
0.019 | 0.018 | 0.038 | – | – | CC(CNC1=NCCN1)C(=O)N1CCC(C(=O)NC[C@H](NC(=O)OCc2ccccc2)C(=O)O)CC1 (stereo partly drawn) [Compound 16, 3-[[[1-[3-[(4,5-dihydro-1H-imidazol-2-yl)amino]-2-methyl-1-oxopropyl]-4-piperidinyl]carbonyl]amino]-N-[(phenylmethoxy)carbonyl]-L-alanine] | –
0.15 | 1.6 | > 5 | – | – | CCN(CC)C(=O)COC(=O)CC(NC(=O)C1CCN(C(=O)CCCNC2=NCCN2)CC1)c1cnc2ccccc2c1 (stereo not drawn) [Compound 46] | –
0.02 | 0.014 | – | – | – | O=C(N[C@@H](CNC(=O)C1CCN(C(=O)CCNC2=NCCN2)CC1)C(=O)O)OCc1ccccc1 [Compound 12] | –
0.004 | 0.028 | – | – | – | CC(CCNC1=NCCN1)C(=O)N1CCC(C(=O)NC[C@H](NC(=O)OCc2ccccc2)C(=O)O)CC1 (stereo partly drawn) [Compound 47, 3-[[[1-[4-[(4,5-dihydro-1H-imidazol-2-yl)amino]-2-methyl-1-oxobutyl]-4-piperidinyl]carbonyl]amino]-N-[(phenylmethoxy)carbonyl]-L-alanine] | –
0.55 | 1.1 | – | – | – | O=C(N[C@@H](CNC(=O)C1CCN(C(=O)CCc2nc3ccccc3[nH]2)CC1)C(=O)O)OCc1ccccc1 [Compound 8] | –
0.35 | 0.13 | – | – | – | O=C(N[C@H](CNC(=O)C1CCN(C(=O)CCCNC2=NCCS2)CC1)C(=O)O)OCc1ccccc1 [Compound 57] | –
0.29 | 1.7 | – | – | – | O=C(O)CC(NC(=O)C1CCN(C(=O)CCCNC2=NCCN2)CC1)c1ccc2ccccc2c1 (stereo not drawn) [Compound 37] | –
3.9 | 0.0074 | – | 38 | – | C=CC(N)CCC(=O)N1CCC(C(=O)NC[C@H](NC(=O)OCc2ccccc2)C(=O)O)CC1 (stereo partly drawn) [Compound 50, 3-[[[1-(4-amino-1-oxo-5-hexenyl)-4-piperidinyl]carbonyl]amino]-N-[(phenylmethoxy)carbonyl]-L-alanine] | –
0.12 | 3.6 | – | – | – | O=C(O)CC(NC(=O)C1CCN(C(=O)CCCNC2=NCCN2)CC1)c1cccc(F)c1 (stereo not drawn) [Compound 32] | –
